Tests used:
[1] = tested on: rat's retinal function after ischemic insult; assay: b-wave recovery of retinal function after ischemic insult (ERG); format: in vivo; settings: 1% instilled topically
Experimental: The retinal ischemia experiment has been described previously (Chiou et al., J. Ocular Pharmacol. 9:179-185, 1993, and Chiou et al., J. Ocular Pharmacol. 10:493-498, 1994). Electroretinograms (ERG) were carried out to assess the retinal function prior to and after the ischemic insult. ERGs were recorded using Ag/AgCl electrodes placed in contact with the cornea. One stainless steel needle was inserted subcutaneously between the two eyes as a reference electrode, and another needle was inserted subcutaneously into the neck as a ground electrode. A photostimulator (Grass PS22 Flash) was used to produce flashes of light 5 inches from the eye, and the ERG potentials were recorded on a polygraph. The ERG system was purchased from LKC Technologies, Inc. (Gaithersburg, Md.). A single flash (10 msec) of white light stimuli was used to evoke ERG a- and b-waves. Peak b-wave amplitudes were measured from the trough of the a-wave to the peak of the b-wave.
Long-Evans rats (200-250 g), dark-adapted at least 2 hours, were anaesthetized intramuscularly with ketamine (35 mg/kg) plus xylazine (5 mg/kg). Half of the initial dose was administrated at one hour intervals to maintain adequate anesthesia. The pupils were dilated with 1% tropicamide (50 μl) for ERG experiments. Retinal ischemia was produced by occlusion of the central retina and posterior ciliary arteries using a ligature placed around the optic nerve and posterior ciliary artery. The ligature was drawn tightly through a micropipette tip placed at the base of the eyeball socket to occlude the retinal vessels for 30 min. After 30 min of retinal ischemia, the ligature was liberated and the retinal arteries allowed to reperfuse. ERGs were measured at 30, 60, 90, 120, 180 and 240 min thereafter. The compounds and vehicle were administered topically before occlusion of the central retinal arteries.

[2] = tested on: Ocular Hypertensive Rabbit; assay: Ocular blood flow in ocular hypertensive rabbit (colored microspheres); format: in vivo; settings: 1% topical instillation, 30 minutes after drug instillation
Experimental: 0.5% alcaine was purchased commercially. A 20% sterilized hypertonic saline solution was prepared in the laboratory. Colored microspheres were purchased from E-Z Trac (Los Angeles, Calif.). The colored microspheres were diluted with saline containing 0.01% (v/v) of Tween 80 to prevent the microspheres from sticking together. Two million microspheres in 0.4 ml were injected at each time point.
Female New Zealand white rabbits weighing 2.-3.0 kg, were purchased commercially. Animal care and treatment were followed by the institutional guidelines.
Rabbits were anesthetized with 35 mg/kg ketamine and 5 mg/kg xylazine by intramuscular injection. Half of the initial dose was given every one hour thereafter. The left ventricle was cannulated through the right carotid artery for injection of colored microspheres and the femoral artery was cannulated for collection of blood samples. The left eye was treated with one drop of proparacaine hydrochloride ophthalmic solution (Bausch & Lomb, Inc., Tampa, Fla., USA). The needle was inserted directly into the anterior chamber of the left eye, which was connected to the 40 mmHg saline manometer. The ocular hypertensive model reduced the ocular blood flow to approximately one third of the normal valued. 50 μl of 10 g/l flavone or vehicle (30% HP-β-CD solution) was instilled topically to the left eye 30 minutes after the ocular hypertensive model was built. The ocular blood flow was measured by colored microspheres at 0, 30, 60 and 120 minutes after treatment with the compounds or vehicle. At each time point, 2 million microspheres were injected as a reference, and blood samples were taken from the femoral artery for exactly one minute following injection of the microspheres. The blood sample was collected in a heparinized tube and the volume was recorded. The rabbits were euthanized with an injection of 100 mg/kg pentobarbital sodium after the last blood sampling. The left eyes were enucleated and dissected into the iris, ciliary body, retina and choroid. All the tissues were weighed.
The details of sample processing and microsphere counting were provided by E-Z Trac (Los Angeles, Calif., USA). In brief, the blood hemolysis reagent was added to the microfuge tubes with the blood sample, then vortexed and centrifuged for 30 minutes at 6000 rpm. The supernatant was removed, and then tissue/blood digest reagents I and II were added. The tubes were capped, vortexed, and centrifuged for 30 minutes. […] The number of microspheres was counted by the hemocytometer under the microscope. […] The protocol thereafter was the same as that used to process the blood samples, and the microspheres were counted.
The blood flow of each tissue at a certain time point was calculated according to the following formula: Qm=(Cm×Qr)/Cr. […]

- b-wave amplitude recovery, of the original level ([1]; after 30 min retinal ischemia and reperfusion): approximately 50%
- duration of drug action on b-wave recovery ([1]; after drug application): at least 240 min
Structure (SMILES): CC(C)=CCC/C(C)=C/Cc1c(O)cc2c(c1O)C(=O)C[C@@H](c1ccc(O)c(O)c1)O2 [Formula (I)]
- blood flow in choroid [2]: significantly increased
- blood flow in iris [2]: significantly increased

Source: patent US9370503B1, “Compounds for treating ocular diseases” (priority 2015, dated 2016)
